In US20260306644A1, “ANTIBODY RECRUITING MOLECULES FOR THE TREATMENT OF CORONAVIRUS DISEASE-19” (priority 2023, published 2026) one finds IC50 data, which are given here for seven compounds.

As a reminder, the IC50 is the point on the concentration scale where inhibition reaches its midpoint.

The target in this assay is T1, SARS-CoV-2 Spike A (wild-type) (Severe acute respiratory syndrome coronavirus 2, UniProt P0DTC2).
T1 construct: purchased Meso Scale Diagnostics, LLC V-PLEX SARS-CoV-2 Panel 13 (ACE2) Kit / Panel 23 (ACE2) Kit
As to the kind of experiment: MSD ACE2 competition assay (inhibition of Spike binding with ACE2, ECL), A (wild-type).

Setting [1] is: IC50 Wild Type, Wild Type Spike.
[2] abbreviates: read-out: IC50, Wild Type, Wild Type.

Values joined by “and” are separate entries in the source; they are usually repeats but may differ in a detail not shown here. Equal entries are not always repeated. Where two headings read alike, the source gives them in different places. Positions of bridges follow the written chain, without caps; N, C: chain ends. Residues, ends and D or L forms follow the SMILES beside them.

As for `CC[C@H](C)[C@H](NC(=O)[C@H](CC(C)C)NC(=O)[C@H](CC(=O)O)NC(=O)[C@H](CO)NC(=O)[C@@H](NC(=O)[C@H](CCCNC(=N)N)NC(=O)[C@H](CCSC)NC(=O)[C@@H]1CSSC[C@H](NC(=O)[C@H](CC(C)C)NC(=O)[C@H](CCCNC(=N)N)NC(=O)[C@H](CCSC)NC(=O)[C@@H](NC(=O)[C@H](CCC(=O)O)NC(=O)[C@H](Cc2ccc(O)cc2)NC(=O)[C@@H](NC(=O)[C@H](CCCCN)NC(=O)[C@H](CCC(N)=O)NC(=O)[C@H](CC(C)C)NC(=O)[C@@H](NC(=O)[C@H](Cc2c[nH]c3ccccc23)NC(=O)[C@H](CCC(=O)O)NC(=O)[C@H](CCCCN)NC(=O)[C@@H](N)CC(=O)O)[C@@H](C)CC)[C@@H](C)CC)[C@@H](C)CC)C(=O)N[C@@H](CC(=O)O)C(=O)N[C@@H](CCC(=O)O)C(=O)N[C@@H](CC(C)C)C(=O)NCC(=O)N[C@@H](Cc2c[nH]cn2)C(=O)N[C@@H](C)C(=O)N[C@@H](CCC(=O)O)C(=O)N[C@@H](C)C(=O)N1)C(C)C)C(=O)N[C@@H](Cc1ccc(O)cc1)C(=O)N[C@@H](CCC(=O)O)C(=O)N[C@@H](Cc1ccccc1)C(=O)N[C@@H](CCSC)C(=O)N[C@@H](CCCCN)C(=O)N[C@@H](CCCCN)C(=O)NCC(N)=O` [Compound 138] (H-DKEWILQKIYEIMRLCDELGHAEACMRVSDLIYEFMKKG-NH2; disulfide 16-25), the IC50 (IC50, Wild Type, Wild Type) came to 0.0127 µM. In turn, `CC[C@H](C)[C@H](NC(C)=O)C(=O)N[C@@H](CC(C)C)C(=O)N[C@@H](CCC(N)=O)C(=O)N[C@@H](CCCCN)C(=O)N[C@H](C(=O)N[C@@H](Cc1ccc(O)cc1)C(=O)N[C@@H](CCC(=O)O)C(=O)N[C@H](C(=O)N[C@@H](CCSC)C(=O)N[C@@H](CCCNC(=N)N)C(=O)N[C@@H](CC(C)C)C(=O)N[C@@H](CC(C)C)C(=O)N[C@@H](CC(=O)O)C(=O)N[C@@H](CCC(=O)O)C(=O)N[C@@H](CC(C)C)C(=O)NCC(=O)N[C@@H](Cc1c[nH]cn1)C(=O)N[C@@H](C)C(=O)N[C@@H](CCC(=O)O)C(=O)N[C@@H](C)C(=O)N[C@@H](CO)C(=O)N[C@@H](CCSC)C(=O)N[C@@H](CCCNC(=N)N)C(=O)N[C@H](C(=O)N[C@@H](CO)C(=O)N[C@@H](CC(=O)O)C(=O)N[C@@H](CC(C)C)C(=O)N[C@H](C(=O)N[C@@H](Cc1ccc(O)cc1)C(=O)N[C@@H](CCC(=O)O)C(=O)N[C@@H](Cc1ccccc1)C(=O)N[C@@H](CCSC)C(=O)N[C@@H](CCCCN)C(=O)N[C@@H](CCCCN)C(=O)NCC(=O)NCCOCCOCCOCCOCCOCCOCCOCCOCCC(=O)NCCOCCOCCOCCOCCOCCOCCOCCOCCC(=O)N[C@@H](CC(=O)O)C(=O)N[C@H]1CSSC[C@@H](C(=O)N[C@H](C(N)=O)[C@@H](C)O)NC(=O)[C@H](Cc2c[nH]c3ccccc23)NC(=O)[C@H](C(C)C)NC(=O)[C@H](CC(C)C)NC(=O)[C@H](CCC(=O)O)NC(=O)CNC(=O)[C@H](CC(C)C)NC(=O)[C@H](Cc2c[nH]cn2)NC(=O)[C@H](Cc2c[nH]c3ccccc23)NC(=O)[C@H](C)NC1=O)[C@@H](C)CC)C(C)C)[C@@H](C)CC)[C@@H](C)CC` [Compound 155] came in with a half-maximal inhibitory concentration (IC50) under setting [1] of 0.00767 µM.

Turning to `CC[C@H](C)[C@H](NC(=O)[C@H](CC(C)C)NC(=O)[C@H](CC(=O)O)NC(=O)[C@H](CO)NC(=O)[C@@H](NC(=O)[C@H](CCCNC(=N)N)NC(=O)[C@H](CCSC)NC(=O)[C@@H]1CSSC[C@H](NC(=O)[C@H](CC(C)C)NC(=O)[C@H](CCCNC(=N)N)NC(=O)[C@H](CCSC)NC(=O)[C@@H](NC(=O)[C@H](CCC(=O)O)NC(=O)[C@H](Cc2ccc(O)cc2)NC(=O)[C@@H](NC(=O)[C@H](CCCCN)NC(=O)[C@H](CCC(N)=O)NC(=O)[C@H](CC(C)C)NC(=O)[C@@H](NC(=O)[C@H](Cc2c[nH]c3ccccc23)NC(=O)[C@H](CCC(=O)O)NC(=O)[C@H](CCCCN)NC(=O)[C@H](CC(=O)O)NC(C)=O)[C@@H](C)CC)[C@@H](C)CC)[C@@H](C)CC)C(=O)N[C@@H](CC(=O)O)C(=O)N[C@@H](CCC(=O)O)C(=O)N[C@@H](CC(C)C)C(=O)NCC(=O)N[C@@H](Cc2c[nH]cn2)C(=O)N[C@@H](C)C(=O)N[C@@H](CCC(=O)O)C(=O)N[C@@H](C)C(=O)N1)C(C)C)C(=O)N[C@@H](Cc1ccc(O)cc1)C(=O)N[C@@H](CCC(=O)O)C(=O)N[C@@H](Cc1ccccc1)C(=O)N[C@@H](CCSC)C(=O)N[C@@H](CCCCN)C(=O)N[C@@H](CCCCN)C(=O)NCC(N)=O` [Compound 175] (Ac-DKEWILQKIYEIMRLCDELGHAEACMRVSDLIYEFMKKG-NH2; disulfide 16-25), the IC50 under setting [2] worked out at 0.00768 µM. As for `CC[C@H](C)[C@H](NC(=O)[C@H](CC(C)C)NC(=O)[C@H](CC(=O)O)NC(=O)[C@H](CO)NC(=O)[C@@H](NC(=O)[C@H](CCCNC(=N)N)NC(=O)[C@H](CCSC)NC(=O)[C@@H]1CSSC[C@H](NC(=O)[C@H](CC(C)C)NC(=O)[C@H](CCCNC(=N)N)NC(=O)[C@H](CCSC)NC(=O)[C@@H](NC(=O)[C@H](CCC(=O)O)NC(=O)[C@H](Cc2ccc(O)cc2)NC(=O)[C@@H](NC(=O)[C@H](CCCCN)NC(=O)[C@H](CCC(N)=O)NC(=O)[C@H](CC(C)C)NC(=O)[C@@H](NC(=O)[C@H](Cc2c[nH]c3ccccc23)NC(=O)[C@H](CCC(=O)O)NC(=O)[C@H](CCCCN)NC(=O)[C@H](CC(=O)O)NC(=O)[C@H](CO)NC(C)=O)[C@@H](C)CC)[C@@H](C)CC)[C@@H](C)CC)C(=O)N[C@@H](CC(=O)O)C(=O)N[C@@H](CCC(=O)O)C(=O)N[C@@H](CC(C)C)C(=O)NCC(=O)N[C@@H](Cc2c[nH]cn2)C(=O)N[C@@H](C)C(=O)N[C@@H](CCC(=O)O)C(=O)N[C@@H](C)C(=O)N1)C(C)C)C(=O)N[C@@H](Cc1ccc(O)cc1)C(=O)N[C@@H](CCC(=O)O)C(=O)N[C@@H](Cc1ccccc1)C(=O)N[C@@H](CCSC)C(=O)N[C@@H](CCCCN)C(=O)N[C@@H](CCCCN)C(=O)NCC(N)=O` [Compound 176], the IC50 under setting [2] worked out at 0.00502 µM. `CC[C@H](C)[C@H](NC(=O)[C@H](CC(C)C)NC(=O)[C@H](CC(=O)O)NC(=O)[C@H](CO)NC(=O)[C@@H](NC(=O)[C@H](CCCNC(=N)N)NC(=O)[C@H](CCSC)NC(=O)[C@@H]1CSSC[C@H](NC(=O)[C@H](CC(C)C)NC(=O)[C@H](CCCNC(=N)N)NC(=O)[C@H](CCSC)NC(=O)[C@@H](NC(=O)[C@H](CCC(=O)O)NC(=O)[C@H](Cc2ccc(O)cc2)NC(=O)[C@@H](NC(=O)[C@H](CCCCN)NC(=O)[C@@H](N)CCC(N)=O)[C@@H](C)CC)[C@@H](C)CC)C(=O)N[C@@H](CC(=O)O)C(=O)N[C@@H](CCC(=O)O)C(=O)N[C@@H](CC(C)C)C(=O)NCC(=O)N[C@@H](Cc2c[nH]cn2)C(=O)N[C@@H](C)C(=O)N[C@@H](CCC(=O)O)C(=O)N[C@@H](C)C(=O)N1)C(C)C)C(=O)N[C@@H](Cc1ccc(O)cc1)C(=O)N[C@@H](CCC(=O)O)C(=O)N[C@@H](Cc1ccccc1)C(=O)N[C@@H](CCSC)C(=O)N[C@@H](CCCCN)C(=O)N[C@@H](CCCCN)C(=O)NCC(N)=O` [Compound 177] (H-QKIYEIMRLCDELGHAEACMRVSDLIYEFMKKG-NH2; disulfide 10-19): the 50% inhibitory concentration (IC50) under setting [1] is above 10 µM. Turning to `CC[C@H](C)[C@H](NC(=O)[C@H](CCCCN)NC(=O)[C@H](CCC(N)=O)NC(C)=O)C(=O)N[C@@H](Cc1ccc(O)cc1)C(=O)N[C@@H](CCC(=O)O)C(=O)N[C@H](C(=O)N[C@@H](CCSC)C(=O)N[C@@H](CCCNC(=N)N)C(=O)N[C@@H](CC(C)C)C(=O)N[C@H]1CSSC[C@@H](C(=O)N[C@@H](CCSC)C(=O)N[C@@H](CCCNC(=N)N)C(=O)N[C@H](C(=O)N[C@@H](CO)C(=O)N[C@@H](CC(=O)O)C(=O)N[C@@H](CC(C)C)C(=O)N[C@H](C(=O)N[C@@H](Cc2ccc(O)cc2)C(=O)N[C@@H](CCC(=O)O)C(=O)N[C@@H](Cc2ccccc2)C(=O)N[C@@H](CCSC)C(=O)N[C@@H](CCCCN)C(=O)N[C@@H](CCCCN)C(=O)NCC(N)=O)[C@@H](C)CC)C(C)C)NC(=O)[C@H](C)NC(=O)[C@H](CCC(=O)O)NC(=O)[C@H](C)NC(=O)[C@H](Cc2c[nH]cn2)NC(=O)CNC(=O)[C@H](CC(C)C)NC(=O)[C@H](CCC(=O)O)NC(=O)[C@H](CC(=O)O)NC1=O)[C@@H](C)CC` [Compound 178] (Ac-QKIYEIMRLCDELGHAEACMRVSDLIYEFMKKG-NH2; disulfide 10-19), the IC50 under setting [1] is above 10 µM. On the same count and under the same terms, for `CC[C@H](C)[C@H](N)C(=O)N[C@@H](CC(C)C)C(=O)N[C@@H](CCC(N)=O)C(=O)N[C@@H](CCCCN)C(=O)N[C@H](C(=O)N[C@@H](Cc1ccc(O)cc1)C(=O)N[C@@H](CCC(=O)O)C(=O)N[C@H](C(=O)N[C@@H](CCSC)C(=O)N[C@@H](CCCNC(=N)N)C(=O)N[C@@H](CC(C)C)C(=O)N[C@H]1CSSC[C@@H](C(=O)N[C@@H](CCSC)C(=O)N[C@@H](CCCNC(=N)N)C(=O)N[C@H](C(=O)N[C@@H](CO)C(=O)N[C@@H](CC(=O)O)C(=O)N[C@@H](CC(C)C)C(=O)N[C@H](C(=O)N[C@@H](Cc2ccc(O)cc2)C(=O)N[C@@H](CCC(=O)O)C(=O)N[C@@H](Cc2ccccc2)C(=O)N[C@@H](CCSC)C(=O)N[C@@H](CCCCN)C(=O)N[C@@H](CCCCN)C(=O)NCC(N)=O)[C@@H](C)CC)C(C)C)NC(=O)[C@H](C)NC(=O)[C@H](CCC(=O)O)NC(=O)[C@H](C)NC(=O)[C@H](Cc2c[nH]cn2)NC(=O)CNC(=O)[C@H](CC(C)C)NC(=O)[C@H](CCC(=O)O)NC(=O)[C@H](CC(=O)O)NC1=O)[C@@H](C)CC)[C@@H](C)CC` [Compound 179] (H-ILQKIYEIMRLCDELGHAEACMRVSDLIYEFMKKG-NH2; disulfide 12-21) the value was 0.152 µM and 0.168 µM.
